Here are results for 16 molecules from patent publication US6444688B1, “Compounds and compositions with nitrogen-containing non-basic side chains” (Eli Lilly and Company, priority 1995, dated 2002).

The structures appear in SMILES notation. Where “and” joins values, the source holds several entries; their conditions need not be identical. Equal entries are not always repeated. Marks after values point to notes of the source that are not given here.

Common to all, as to type: in vivo, Sprague Dawley rats
The subject of data set [1] is ovariectomized (OVX) rats. The experiment in a line: Four day dosing regimen, post-menopausal rat model: wet uterine weight. The note with it: OVX rats, oral, daily for 4 days. Here is the method:
(§1) Animals were dosed daily for 4 days. […] A blood sample was collected by cardiac puncture.

The test system of data set [2] is uterine eosinophil peroxidase activity. The experiment in a line: Uterine eosinophil peroxidase (EPO) assay, four day dosing. The settings on record: OVX rats, oral, daily for 4 days. As to the method: as §1
Data set [3] deals with ovariectomized (OVX) rats. The experiment in a line: Serum cholesterol analysis, four day dosing. The settings on record: Rattus norvegicus, po, 96 h, OVX rats, oral, daily for 4 days, read-out: Serum Cholesterol (% dec. OVX). As to the method:
as §1
Blood samples were allowed to clot at room temperature for 2 hours, and serum was obtained following centrifugation for 10 minutes at 3000 rpm. Serum cholesterol was determined using a Boehringer Mannheim Diagnostics high performance cholesterol assay. Briefly the cholesterol was oxidized to cholest-4-en-3-one and hydrogen peroxide. The hydrogen peroxide was then reacted with phenol and 4-aminophenazone in the presence of peroxidase to produce a p-quinone imine dye, which was read spectrophotemetrically at 500 nm. Cholesterol concentration was then calculated against a standard curve. The entire assay was automated using a Biomek Automated Workstation.

`O=C(NCCOc1ccc(C(=O)c2c(-c3ccc(O)cc3)sc3cc(O)ccc23)cc1)c1ccccc1` [Compound 18]: the “Uterine Weight (% inc. OVX)” value in data set [1] (dose 0.1 mg/kg) is 16.1 % inc. OVX; in data set [1] (dose 1 mg/kg) it was 25.7 % inc. OVX; in data set [1] (dose 10 mg/kg), 12.6 % inc. OVX. For the same molecule, the “Uterine EPO (Vmax)” value is recorded as 3.2 Vmax in data set [2] (dose 0.1 mg/kg), 3.6 Vmax in data set [2] (dose 1 mg/kg) and 3.6 Vmax in data set [2] (dose 10 mg/kg). In addition, in data set [3], the inhibition in vivo at 0.1 mg/kg was -10.8%. The inhibition in vivo at 1 mg/kg in data set [3] is -12.2%. In addition, the inhibition in vivo at 10 mg/kg in data set [3] worked out at 12.8%.
Turning to `O=C(c1ccc(OCCN2CCCCC2=O)cc1)c1c(-c2ccc(O)cc2)sc2cc(O)ccc12` [Compound 3], the “Uterine Weight (% inc. OVX)” value was 13.3 % inc. OVX in data set [1] (dose 0.1 mg/kg), 17.8 % inc. OVX in data set [1] (dose 1 mg/kg) and 57.6* % inc. OVX in data set [1] (dose 10 mg/kg). Also, the “Uterine EPO (Vmax)” value in data set [2] (dose 0.1 mg/kg) is 8.0 Vmax; in data set [2] (dose 1 mg/kg), 7.8 Vmax; in data set [2] (dose 10 mg/kg), 8.9 Vmax.
In the case of `CC(C#N)Oc1ccc(C(=O)c2c(-c3ccc(O)cc3)sc3cc(O)ccc23)cc1` (stereo not shown) [Compound 16], the “Uterine Weight (% inc. OVX)” value in data set [1] (dose 0.1 mg/kg) is 0.7 % inc. OVX; in data set [1] (dose 1 mg/kg), 27.4 % inc. OVX; in data set [1] (dose 10 mg/kg), 99.2* % inc. OVX. Further, the “Uterine EPO (Vmax)” value came to 2.3 Vmax in data set [2] (dose 0.1 mg/kg), 3.9 Vmax in data set [2] (dose 1 mg/kg) and 23.4 Vmax in data set [2] (dose 10 mg/kg). For the same molecule, in data set [3], the inhibition in vivo at 0.1 mg/kg is 3.4%. The inhibition in vivo at 1 mg/kg in data set [3] was 28.8%. The inhibition in vivo at 10 mg/kg in data set [3] is 71.2%.
For `O=C(NCCOc1ccc(C(=O)c2c(-c3ccc(O)cc3)sc3cc(O)ccc23)cc1)NC1CCCCC1` [Compound 20], the “Uterine Weight (% inc. OVX)” value is −29.9 % inc. OVX in data set [1] (dose 0.1 mg/kg), −27.4 % inc. OVX in data set [1] (dose 1 mg/kg) and −32.7 % inc. OVX in data set [1] (dose 10 mg/kg). Moreover, the “Uterine EPO (Vmax)” value in data set [2] (dose 0.1 mg/kg) stood at 3.0 Vmax; in data set [2] (dose 1 mg/kg), 2.5 Vmax; in data set [2] (dose 10 mg/kg) it was 2.9 Vmax.
Regarding `CCCCN(C)C(=O)COc1ccc(C(=O)c2c(-c3ccc(O)cc3)sc3cc(O)ccc23)cc1` [Compound 10], the entries for the “Uterine Weight (% inc. OVX)” value in data set [1] (dose 0.1 mg/kg), in data set [1] (dose 1 mg/kg) and in data set [1] (dose 10 mg/kg) were 1.5 % inc. OVX, −6.7 % inc. OVX and 38.0* % inc. OVX, respectively. In addition, the “Uterine EPO (Vmax)” value in data set [2] (dose 0.1 mg/kg) is on record as 4.3 Vmax; in data set [2] (dose 1 mg/kg), 3.1 Vmax; in data set [2] (dose 10 mg/kg), 17.0 Vmax.
Turning to `CC(=O)NCCOc1ccc(C(=O)c2c(-c3ccc(O)cc3)sc3cc(O)ccc23)cc1` [Compound 26], the “Uterine Weight (% inc. OVX)” value in data set [1] (dose 0.1 mg/kg) is recorded as −17.5 % inc. OVX; in data set [1] (dose 1 mg/kg), −28.8* % inc. OVX; in data set [1] (dose 10 mg/kg), 25.8* % inc. OVX. In addition, the “Uterine EPO (Vmax)” value is on record as 1.3 Vmax in data set [2] (dose 0.1 mg/kg), 0.7 Vmax in data set [2] (dose 1 mg/kg) and 13.6 Vmax in data set [2] (dose 10 mg/kg). For the same molecule, the inhibition in vivo at 1 mg/kg in data set [3] turned out to be 19%. The inhibition in vivo at 10 mg/kg in data set [3] came to 32.8%.
In the case of `O=C(c1ccc(OCCNC(=O)C2CCCCC2)cc1)c1c(-c2ccc(O)cc2)sc2cc(O)ccc12` [Compound 21], the “Uterine Weight (% inc. OVX)” value was −5.5 % inc. OVX in data set [1] (dose 0.1 mg/kg), −11.5 % inc. OVX in data set [1] (dose 1 mg/kg) and 8.6 % inc. OVX in data set [1] (dose 10 mg/kg). The “Uterine EPO (Vmax)” value in data set [2] (dose 0.1 mg/kg) is 3.1 Vmax; in data set [2] (dose 1 mg/kg), 2.6 Vmax; in data set [2] (dose 10 mg/kg) it was 2.4 Vmax. In data set [3], the inhibition in vivo at 0.1 mg/kg was found to be 9.3%. In addition, the inhibition in vivo at 1 mg/kg in data set [3] was found to be 0.5%. Besides, the inhibition in vivo at 10 mg/kg in data set [3] is 24%.
`O=C(c1ccc(OCC(=O)N2CCCC2)cc1)c1c(-c2ccc(O)cc2)sc2cc(O)ccc12` [Compound 8]: the “Uterine Weight (% inc. OVX)” value in data set [1] (dose 0.01 mg/kg) is −22.9 % inc. OVX. The “Uterine EPO (Vmax)” value was 3.5 Vmax in data set [2] (dose 0.01 mg/kg); 3.6 Vmax and 4.4 Vmax in data set [2] (dose 0.1 mg/kg); 6.1 Vmax and 3.7 Vmax in data set [2] (dose 1 mg/kg). Moreover, the inhibition in vivo at 0.01 mg/kg in data set [3] (dose 0.01 mg/kg) turned out to be 27.2%. Also, the inhibition in vivo at 0.1 mg/kg in data set [3] was 17.4%. Also, the inhibition in vivo at 10 mg/kg in data set [3] came out at 70.3%.
As for `O=C(c1ccc(OCC(=O)N2CCCCC2)cc1)c1c(-c2ccc(O)cc2)sc2cc(O)ccc12` [Compound 9], the “Uterine Weight (% inc. OVX)” value is on record as −10.0 % inc. OVX in data set [1] (dose 0.1 mg/kg), 6.5 % inc. OVX in data set [1] (dose 1 mg/kg) and 51.7* % inc. OVX in data set [1] (dose 10 mg/kg). In addition, the “Uterine EPO (Vmax)” value in data set [2] (dose 0.1 mg/kg) turned out to be 2.8 Vmax; in data set [2] (dose 1 mg/kg) it was 3.6 Vmax; in data set [2] (dose 10 mg/kg) it was 32 Vmax.
`CC(C)(C)C(=O)N1CCCCC1COc1ccc(C(=O)c2c(-c3ccc(O)cc3)sc3cc(O)ccc23)cc1` (stereo not shown) [Compound 22]: the “Uterine Weight (% inc. OVX)” value in data set [1] (dose 0.1 mg/kg) is on record as 1.9 % inc. OVX; in data set [1] (dose 1 mg/kg), 19.6 % inc. OVX; in data set [1] (dose 10 mg/kg), 46.9* % inc. OVX. Besides, the figures for the “Uterine EPO (Vmax)” value in data set [2] (dose 0.1 mg/kg), in data set [2] (dose 1 mg/kg) and in data set [2] (dose 10 mg/kg) were 3.5 Vmax, 20.0 Vmax and 69.5* Vmax, respectively. The inhibition in vivo at 0.1 mg/kg in data set [3] is 22.1%. Further, the inhibition in vivo at 1 mg/kg in data set [3] amounted to 36.2%. Also, the inhibition in vivo at 10 mg/kg in data set [3] is 71.5%.
As to `N#CCOc1ccc(C(=O)c2c(-c3ccc(O)cc3)sc3cc(O)ccc23)cc1` [Compound 14], the “Uterine Weight (% inc. OVX)” value was 18.8 % inc. OVX in data set [1] (dose 0.1 mg/kg), 14.6 % inc. OVX in data set [1] (dose 1 mg/kg) and 124.6* % inc. OVX in data set [1] (dose 10 mg/kg). The “Uterine EPO (Vmax)” value in data set [2] (dose 0.1 mg/kg) is 3.3 Vmax; in data set [2] (dose 1 mg/kg), 2.4 Vmax; in data set [2] (dose 10 mg/kg), 145.8* Vmax. For the same molecule, in data set [3], the inhibition in vivo at 10 mg/kg worked out at 91.1%.
`CN(C)C(=O)COc1ccc(C(=O)c2c(-c3ccc(O)cc3)sc3cc(O)ccc23)cc1` [Compound 12]: the “Uterine Weight (% inc. OVX)” value in data set [1] (dose 0.1 mg/kg) was −7.7 % inc. OVX; in data set [1] (dose 1 mg/kg) it was 15.4 % inc. OVX; in data set [1] (dose 10 mg/kg) it was 60.7* % inc. OVX. The “Uterine EPO (Vmax)” value is given as 3.7 Vmax in data set [2] (dose 0.1 mg/kg), 6.7 Vmax in data set [2] (dose 1 mg/kg) and 122.3* Vmax in data set [2] (dose 10 mg/kg).
With `O=C(c1ccc(OCCN2C(=O)CCC2=O)cc1)c1c(-c2ccc(O)cc2)sc2cc(O)ccc12` [Compound 13], the “Uterine Weight (% inc. OVX)” value in data set [1] (dose 0.1 mg/kg) is listed as 22.2 % inc. OVX; in data set [1] (dose 1 mg/kg), 7.2 % inc. OVX; in data set [1] (dose 10 mg/kg) it was −4.0 % inc. OVX. The “Uterine EPO (Vmax)” value was found to be 1.9 Vmax in data set [2] (dose 0.1 mg/kg), 1.7 Vmax in data set [2] (dose 1 mg/kg) and 2.5 Vmax in data set [2] (dose 10 mg/kg).
As to `CC(=O)N(CCOc1ccc(C(=O)c2c(-c3ccc(O)cc3)sc3cc(O)ccc23)cc1)C1CCCCC1` [Compound 19], the “Uterine Weight (% inc. OVX)” value is 7 % inc. OVX in data set [1] (dose 0.1 mg/kg), −25.5* % inc. OVX in data set [1] (dose 1 mg/kg) and 47.0* % inc. OVX in data set [1] (dose 10 mg/kg). Moreover, the “Uterine EPO (Vmax)” value in data set [2] (dose 0.1 mg/kg) is on record as 5.4 Vmax; in data set [2] (dose 1 mg/kg), 3.7 Vmax; in data set [2] (dose 10 mg/kg) it was 29.3* Vmax. For the same molecule, the inhibition in vivo at 1 mg/kg in data set [3] is 20.1%. In addition, the inhibition in vivo at 10 mg/kg in data set [3] was 52.2%.
With `O=C(c1ccc(OCCN2CCCC2=O)cc1)c1c(-c2ccc(O)cc2)sc2cc(O)ccc12` [Compound 6], the “Uterine Weight (% inc. OVX)” value was −9 % inc. OVX in data set [1] (dose 0.1 mg/kg), 15.4 % inc. OVX in data set [1] (dose 1 mg/kg) and 40.3* % inc. OVX in data set [1] (dose 10 mg/kg). The “Uterine EPO (Vmax)” value in data set [2] (dose 0.1 mg/kg) is recorded as 3.6 Vmax; in data set [2] (dose 1 mg/kg) it was 1.4 Vmax; in data set [2] (dose 10 mg/kg), 3.7 Vmax.
As to `CC(C)(C)C(=O)N1CCC(Oc2ccc(C(=O)c3c(-c4ccc(O)cc4)sc4cc(O)ccc34)cc2)CC1` [Compound 23], the “Uterine Weight (% inc. OVX)” value is recorded as −4.3 % inc. OVX in data set [1] (dose 0.1 mg/kg), 0.8 % inc. OVX in data set [1] (dose 1 mg/kg) and 22.3 % inc. OVX in data set [1] (dose 10 mg/kg). Also, the “Uterine EPO (Vmax)” value in data set [2] (dose 0.1 mg/kg) was determined as 1.6 Vmax; in data set [2] (dose 1 mg/kg), 3.8 Vmax; in data set [2] (dose 10 mg/kg), 6.7 Vmax. Besides, in data set [3], the inhibition in vivo at 10 mg/kg turned out to be 55.8%.
